Test results: patent US20240393292A1, “ALLERGY ANTIGEN AND EPITOPE THEREOF” (HOYU CO., LTD., priority 2019, published 2024)

System: IgE antibodies from patients
Assay: Wheat epitope mapping (2): overlapping 10-amino-acid peptide fragments shifted by one amino acid;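 on Rank of partial sequence as epitope binding to IgE antibody: key = sequence deemed particularly important within the common 15-residue sequence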;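 on epitope sequence binding to IgE antibody, rank (Key/Preferably/More preferably): key of grades: preferably = shorter partial sequence still acting as epitope; more preferably = sequence improving IgE binding; key = particularly important sequence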
Format: binding, human
Procedure, shortened: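 Cellulose-bound 10-mer peptides offset by one residue were probed with patient serum IgE and detected by chemiluminescence. Secondary-antibody-only signals were subtracted per peptide. Residual binding was expressed as % of the parent overlapping peptide, scored as none (<30%), poor (30–<50%), somewhat poor (50–<70%) or retained (≥70%).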

[1] = serum of patient P9 (WDEIA), sequence without X
[2] = serum of patient P4 (WDEIA), sequence without X
[3] = serum of patient P34 (WDEIA), sequence without X
[4] = serum of patient P35 (WDEIA), sequence without X
[5] = serum of patient P18 (WDEIA), sequence without X
[6] = serum of patient P36 (WDEIA), sequence without X

For “2347 (VTEI; REGION 1..4: note = epitope) [compound 2347]”, which “Epitope sequence binding to IgE antibody, rank of the sequence (Key/Preferably/More preferably)” value [1] is on record?
Its value is “Key”.

“1806 (ELEALPK; REGION 1..7: note = epitope) [compound 1806]” was tested. Which “epitope sequence binding to IgE antibody, rank (Key/Preferably/More preferably)” value (serum of patient P22 (WDEIA)) did it give?
Its value is “Key”.

With “1372 (QPLPPQQQ; REGION 1..8: note = epitope) [compound 1372]” as the substance, how does the “Epitope sequence binding to IgE antibody, rank of the sequence” value [2] read?
The value was “Key”.

With “2698 (KGPTL; REGION 1..5: note = epitope) [compound 2698]” as the substance, how does the “Epitope sequence binding to IgE antibody, rank of the sequence” value (serum of patient G7 (adult, general immediate type allergy to wheat), partial sequence) read?
Its value is “Key”.

“1482 (YLQPQQPISQ; REGION 1..10: note = epitope) [compound 1482]” was tested. Which “Rank of partial sequence as epitope binding to IgE antibody” value (from here on “Rank of partial sequence”) [3] did it give?
The value was “More preferably”.

With “2623 (SAKPLL; REGION 1..6: note = epitope) [compound 2623]” as the substance, how does the “Epitope sequence binding to IgE antibody, rank of the sequence” value (serum of patient G3 (adult, general immediate type allergy to wheat), partial sequence) read?
Its value is “Preferably”.

For “2241 (RLLRGIRN; REGION 1..8: note = epitope) [compound 2241]”, which “Epitope sequence binding to IgE antibody, rank of the sequence (Key/Preferably/More preferably)” value [3] is on record?
The value was “Key”.

“1912 (QVPLVQQQ; REGION 1..8: note = epitope) [compound 1912]” was tested. Which “epitope sequence binding to IgE antibody, rank (Key/Preferably/More preferably)” value (serum of patient P8 (WDEIA)) did it give?
Its value is “Preferably”.

How did the “Rank of partial sequence” value [4] turn out when “1641 (YNPDKVP; REGION 1..7: note = epitope) [compound 1641]” was run?
The value was “Preferably”.

How did the “epitope sequence binding to IgE antibody, rank (Key/Preferably/More preferably)” value (serum of patient P26 (WDEIA)) turn out when “1865 (TVRTLQR; REGION 1..7: note = epitope) [compound 1865]” was run?
The value was “Key”.

For “1194 (QQQQFPPQ; REGION 1..8: note = epitope) [compound 1194]”, which “Epitope sequence binding to IgE antibody, rank of the sequence” value (serum of patient P22 (WDEIA), sequence without X) is on record?
The value was “Key”.

Which “epitope sequence binding to IgE antibody, rank (Key/Preferably/More preferably)” value (serum of patient P34 (WDEIA)) does the source give for “1967 (VPLVQQQ; REGION 1..7: note = epitope) [compound 1967]” here?
The value was “Key”.

Which “Epitope sequence binding to IgE antibody, rank of the sequence (Key/Preferably/More preferably)” value (serum of patient P29 (WDEIA), sequence without X) does the source give for “2384 (YVTEIVL; REGION 1..7: note = epitope) [compound 2384]” here?
The value was “Preferably”.

With “1719 (EAANF; REGION 1..5: note = epitope) [compound 1719]” as the substance, how does the “epitope sequence binding to IgE antibody, rank (Key/Preferably/More preferably)” value (serum of patient P36 (WDEIA)) read?
Its value is “Preferably”.

How did the “epitope sequence binding to IgE antibody, rank (Key/Preferably/More preferably)” value (serum of patient P52 (child, general immediate type allergy to wheat)) turn out when “1730 (SQVIIM; REGION 1..6: note = epitope) [compound 1730]” was run?
Its value is “Key”.

With “1868 (TVRTLQ; REGION 1..6: note = epitope) [compound 1868]” as the substance, how does the “epitope sequence binding to IgE antibody, rank (Key/Preferably/More preferably)” value (serum of patient P28 (WDEIA)) read?
The value was “Key”.

Which “Epitope sequence binding to IgE antibody, rank of the sequence (Key/Preferably/More preferably)” value (serum of patient P7 (WDEIA), sequence without X) does the source give for “2269 (LGGIDK; REGION 1..6: note = epitope) [compound 2269]” here?
Its value is “Key”.

With “1890 (RTLQ; REGION 1..4: note = epitope) [compound 1890]” as the substance, how does the “epitope sequence binding to IgE antibody, rank (Key/Preferably/More preferably)” value (serum of patient G6 (adult, general immediate type allergy to wheat)) read?
Its value is “Key”.

“1432 (SQQQAQ; REGION 1..6: note = epitope) [compound 1432]” was tested. Which “Rank of partial sequence” value (serum of patient P15 (WDEIA), sequence without X) did it give?
The value was “Key”.

For “1418 (YLQPQQPISQ; REGION 1..10: note = epitope) [compound 1418]”, which “Epitope sequence binding to IgE antibody, rank of the sequence” value [1] is on record?
Its value is “Preferably”.

“1923 (QQFPGQQQ; REGION 1..8: note = epitope) [compound 1923]” was tested. Which “epitope sequence binding to IgE antibody, rank (Key/Preferably/More preferably)” value (serum of patient P12 (WDEIA)) did it give?
The value was “Preferably”.

How did the “Rank of partial sequence” value [2] turn out when “1514 (QVPLVQQQQ; REGION 1..9: note = epitope) [compound 1514]” was run?
Its value is “Preferably”.

“1179 (QQFPPQQ; REGION 1..7: note = epitope) [compound 1179]” was tested. Which “Epitope sequence binding to IgE antibody, rank of the sequence” value (serum of patient P12 (WDEIA), sequence without X) did it give?
The value was “Preferably”.

Which “epitope sequence binding to IgE antibody, rank (Key/Preferably/More preferably)” value (serum of patient G4 (adult, general immediate type allergy to wheat)) does the source give for “1783 (KVGYNP; REGION 1..6: note = epitope) [compound 1783]” here?
The value was “Key”.

“1611 (YNPD; REGION 1..4: note = epitope) [compound 1611]” was tested. Which “Rank of partial sequence” value (serum of patient P8 (WDEIA), sequence without X) did it give?
The value was “Key”.

With “1295 (VSMILPRSD; REGION 1..9: note = epitope) [compound 1295]” as the substance, how does the “Epitope sequence binding to IgE antibody, rank of the sequence” value (serum of patient G7 (adult, general immediate type allergy to wheat), sequence without X) read?
Its value is “Key”.

Which “epitope sequence binding to IgE antibody, rank (Key/Preferably/More preferably)” value (serum of patient P18 (WDEIA)) does the source give for “1803 (SGKELE; REGION 1..6: note = epitope) [compound 1803]” here?
The value was “Key”.

For “2282 (IDKRVIER; REGION 1..8: note = epitope) [compound 2282]”, which “Epitope sequence binding to IgE antibody, rank of the sequence (Key/Preferably/More preferably)” value [5] is on record?
Its value is “Key”.

Which “Epitope sequence binding to IgE antibody, rank of the sequence” value (serum of patient P33 (WDEIA), sequence without X) does the source give for “1282 (LPRS; REGION 1..4: note = epitope) [compound 1282]” here?
The value was “Key”.

With “2500 (QVSF; REGION 1..4: note = epitope) [compound 2500]” as the substance, how does the “Epitope sequence binding to IgE antibody, rank of the sequence” value (serum of patient P8 (WDEIA), partial sequence) read?
The value was “Key”.

For “1361 (NVEN; REGION 1..4: note = epitope) [compound 1361]”, which “Epitope sequence binding to IgE antibody, rank of the sequence” value (serum of patient P51 (child, general immediate type allergy to wheat), sequence without X) is on record?
The value was “Key”.

How did the “Epitope sequence binding to IgE antibody, rank of the sequence (Key/Preferably/More preferably)” value [6] turn out when “2244 (RNYRVA; REGION 1..6: note = epitope) [compound 2244]” was run?
Its value is “Key”.

How did the “Rank of partial sequence” value [5] turn out when “1441 (YLQPQQPISQ; REGION 1..10: note = epitope) [compound 1441]” was run?
The value was “Preferably”.

For “1401 (KPWQQQ; REGION 1..6: note = epitope) [compound 1401]”, which “Epitope sequence binding to IgE antibody, rank of the sequence” value [4] is on record?
The value was “Preferably”.

“1873 (TVRTLQR; REGION 1..7: note = epitope) [compound 1873]” was tested. Which “epitope sequence binding to IgE antibody, rank (Key/Preferably/More preferably)” value (serum of patient P30 (WDEIA)) did it give?
The value was “Key”.

“1645 (YNPDKVPFV; REGION 1..9: note = epitope) [compound 1645]” was tested. Which “Rank of partial sequence” value [6] did it give?
Its value is “More preferably”.

How did the “Epitope sequence binding to IgE antibody, rank of the sequence (Key/Preferably/More preferably)” value [4] turn out when “2242 (IRNYRVAI; REGION 1..8: note = epitope) [compound 2242]” was run?
Its value is “Key”.

Which “epitope sequence binding to IgE antibody, rank (Key/Preferably/More preferably)” value (serum of patient P32 (WDEIA)) does the source give for “1962 (QQQFPGQQ; REGION 1..8: note = epitope) [compound 1962]” here?
The value was “Key”.

For “1557 (QVPLVQQQQF; REGION 1..10: note = epitope) [compound 1557]”, which “Rank of partial sequence” value (serum of patient P50 (child, general immediate type allergy to wheat), sequence without X) is on record?
Its value is “More preferably”.

For “1340 (NVEN; REGION 1..4: note = epitope) [compound 1340]”, which “Epitope sequence binding to IgE antibody, rank of the sequence” value (serum of patient P32 (WDEIA), sequence without X) is on record?
The value was “Key”.

With “2503 (SSQVSF; REGION 1..6: note = epitope) [compound 2503]” as the substance, how does the “Epitope sequence binding to IgE antibody, rank of the sequence” value (serum of patient P15 (WDEIA), partial sequence) read?
The value was “Key”.

For “1668 (FVPISG; REGION 1..6: note = epitope) [compound 1668]”, which “Rank of partial sequence” value (serum of patient G3 (adult, general immediate type allergy to wheat), sequence without X) is on record?
The value was “Key”.
